For 1 compound, Kd results are on record in paper PMC9190012, “Heparin activation of protein Z-dependent protease inhibitor (ZPI) allosterically blocks protein Z activation through an extended heparin-binding site” (The Journal of Biological Chemistry, 2022).

The assay addresses T1, NBD-ZPI (Homo sapiens, UniProt Q9UK55, C190A/C285S/K260C).
T1 construct: made in house; host or cells: Escherichia coli
T1 sequence (Q9UK55 22-444 C190A/K260C/C285S): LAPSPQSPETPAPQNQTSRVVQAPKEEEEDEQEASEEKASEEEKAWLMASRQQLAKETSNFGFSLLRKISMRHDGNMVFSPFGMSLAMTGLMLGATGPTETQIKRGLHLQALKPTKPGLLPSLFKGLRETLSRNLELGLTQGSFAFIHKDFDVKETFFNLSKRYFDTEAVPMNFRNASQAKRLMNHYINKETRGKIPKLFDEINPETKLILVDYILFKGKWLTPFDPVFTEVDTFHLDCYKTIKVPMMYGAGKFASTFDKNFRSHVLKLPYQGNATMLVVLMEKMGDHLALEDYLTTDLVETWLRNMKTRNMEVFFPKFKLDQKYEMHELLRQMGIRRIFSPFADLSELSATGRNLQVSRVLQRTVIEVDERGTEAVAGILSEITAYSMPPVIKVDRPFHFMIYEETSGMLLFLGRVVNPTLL
Briefly: Competitive binding titrations of NBD-ZPI–PZ complex with heparins (quenching of NBD fluorescence). As to conditions: competitive titration of NBD-ZPI–PZ complex (50 nM ZPI/62 nM PZ), 0.1 M NaCl buffer; read-out: ZPI–heparin KD,H. The method, then:
Equilibrium binding of heparin to NBD-ZPI was measured by competitive binding titrations in which heparins of various lengths were titrated into NBD-ZPI (50 nM) complexed with a molar excess of PZ (62 nM) in a lower ionic strength buffer (0.1 M NaCl) and heparin binding followed by the quenching of NBD-ZPI–PZ complex fluorescence. Titrations were computer fit by the competitive binding equation, ΔFmax−ΔFobs/ΔFmax=Fobs−F∞/F0−F∞=[ZPI]0+[PZ]0+KD,PZ×(1+[H]0/KD,H)−([ZPI]0+[PZ]0+KD,PZ×(1+[H]0/KD,H))^2−4×[ZPI]0×[PZ]0/[ZPI]0+[PZ]0+KD,PZ−([ZPI]0+[PZ]0+KD,PZ)^2−4×[ZPI]0×[PZ]0
in which ΔFobs is the observed change in fluorescence of PZ complexed and uncomplexed NBD-ZPI before (Fo) and after heparin addition (Fobs), ΔFmax is the maximal fluorescence change upon reaching the end point fluorescence of NBD-ZPI after complete dissociation of PZ (F∞), [ZPI]o, [PZ]o, and [H]o are total concentrations of NBD-ZPI, PZ, and heparin, respectively, and KD,PZ and KD,H are dissociation constants for the NBD-ZPI–PZ and the NBD-ZPI–heparin interactions, respectively. […] In fitting data to the aforementioned equation, KD,PZ was fixed at the value determined by titration of NBD-ZPI with PZ in the absence of heparin, and KD,H was the fitted parameter.

By Kd is commonly meant the equilibrium constant for the complex coming apart. For the compound `CO[C@H]1O[C@H](COS(=O)(=O)O)[C@@H](O[C@@H]2O[C@@H](C(=O)O)[C@@H](O[C@H]3O[C@H](COS(=O)(=O)O)[C@@H](O[C@@H]4O[C@H](C(=O)O)[C@@H](O[C@H]5O[C@H](COS(=O)(=O)O)[C@@H](O)[C@H](O)[C@H]5NS(=O)(=O)O)[C@H](O)[C@H]4O)[C@H](OS(=O)(=O)O)[C@H]3NS(=O)(=O)O)[C@H](O)[C@H]2OS(=O)(=O)O)[C@H](O)[C@H]1NS(=O)(=O)O` [H5, fondaparinux], the Kd turned out to be 32.4 ± 1.9 µM.
